The conditions of data set [1]: in vivo circulation; cited from earlier work.
A further data set is described as follows: EDTA plasma. The note with it: human, RT (25 ± 1°C), up to 96 hours.
The next data set in a line: P800 plasma. Conditions: human, RT (25 ± 1°C), up to 96 hours.
The next data set in a line: citrate-plasma. Conditions: human, RT (25 ± 1°C).
The next data set in a line: heparin-plasma. The note with it: human, RT (25 ± 1°C).
Data set [2] in a line: conventional serum sample. The note with it: human, RT (25 ± 1°C), up to 96 hours.
The test system of a further data set is purified DPP-IV enzyme. As to the kind of experiment: 50 mM HEPES buffer (pH7.5). Conditions: 37°C, up to 48 hours.

“Also recorded” adds a separate entry of the source.

Turning to `CC[C@H](C)[C@H](NC(=O)[C@H](CO)NC(=O)[C@H](Cc1ccc(O)cc1)NC(=O)[C@H](CC(=O)O)NC(=O)[C@H](CO)NC(=O)[C@@H](NC(=O)[C@H](Cc1ccccc1)NC(=O)[C@@H](NC(=O)CNC(=O)[C@H](CCC(=O)O)NC(=O)[C@H](C)NC(=O)[C@@H](N)Cc1ccc(O)cc1)[C@@H](C)O)[C@@H](C)CC)C(=O)N[C@@H](C)C(=O)N[C@@H](CCSC)C(=O)N[C@@H](CC(=O)O)C(=O)N[C@@H](CCCCN)C(=O)N[C@H](C(=O)N[C@@H](Cc1c[nH]cn1)C(=O)N[C@@H](CCC(N)=O)C(=O)N[C@@H](CCC(N)=O)C(=O)N[C@@H](CC(=O)O)C(=O)N[C@@H](Cc1ccccc1)C(=O)N[C@H](C(=O)N[C@@H](CC(N)=O)C(=O)N[C@@H](Cc1c[nH]c2ccccc12)C(=O)N[C@@H](CC(C)C)C(=O)N[C@@H](CC(C)C)C(=O)N[C@@H](C)C(=O)N[C@@H](CCC(N)=O)C(=O)N[C@@H](CCCCN)C(=O)NCC(=O)N[C@@H](CCCCN)C(=O)N[C@@H](CCCCN)C(=O)N[C@@H](CC(N)=O)C(=O)N[C@@H](CC(=O)O)C(=O)N[C@@H](Cc1c[nH]c2ccccc12)C(=O)N[C@@H](CCCCN)C(=O)N[C@@H](Cc1c[nH]cn1)C(=O)N[C@@H](CC(N)=O)C(=O)N[C@H](C(=O)N[C@H](C(=O)N[C@@H](CCC(N)=O)C(=O)O)[C@@H](C)O)[C@@H](C)CC)C(C)C)[C@@H](C)CC` [GIP(1–42), glucose-dependent insulinotropic polypeptide], the half-life in circulation in data set [1] was around 5 min.

Take HA/EGTFTSDVSSYLEGQAAKEFIAWLVKGR-NH2: the cleaved bond entry in “EDTA plasma” is given as “A8-E9, major, 30 minutes”; in the data set “P800 plasma”, “A8-E9, minor, after 3-day incubation”; in the data set “citrate-plasma”, “A8-E9, major, 30 minutes”; in “heparin-plasma”, “A8-E9, major”; in data set [2], “A8-E9, major, 30 minutes”. Besides, the not cleaved entry in data set [2] is listed as “no G36A-1C”.

As for HA/EGTFTSDVSSYLEGQAAKEFIAWLVKGR-OH, the cleaved bond result is listed as “A8-E9, 30 minutes” in “EDTA plasma” and “A8-E9, 30 minutes; also recorded: G35-R36, 30 minutes” in data set [2].

Take HA/EGTFTSDVSSYLEGQAAKEFIAWLVKGRG: the cleaved bond entry in “EDTA plasma” is reported as “A8-E9, major, 1h”; in “P800 plasma”, “A8-E9, minor, after 3-day incubation”; in “citrate-plasma”, “A8-E9, major”; in the data set “heparin-plasma”, “A8-E9, major”.

On to HS/QGTFTSDYSKYLDSRRAQDFVQWLMNTKRNRNNIA, for which the cleaved bond result in the data set on purified DPP-IV enzyme was “S2-Q3, first_seen, 24 hours; also recorded: G4-T5, 48 h”.

As to HSQGTFTSDYSKYLDSRRAQDFVQWLMNTKRNKNNIA, the not cleaved result in “P800 plasma” is recorded as “fragments not detectable during 3-day incubation; full-length OXM stabilized for more than three days”.

In the case of “YA/EGTFISDYSIAMDKIHQQDFVNWLLAQKGKKNDWKHNITQ”, the cleaved bond entry is “A2-E3, major, two hours” in “EDTA plasma” and “A2-E3, major” in data set [2]. The not cleaved entry in “P800 plasma” is reported as “without any GIP degradation fragments detectable during 4-day incubation at RT; t½ > 96 hours”.

Turning to glucagon-like peptide 1 [GLP-1], in data set [1], the half-life in circulation result is listed as “approximately 2 minutes”.

Values taken from PMC4519045 (PLoS ONE, 2015).
